Data published in publication PMC11600167 (JACS Au, 2024).

Tests used:
Assay in all cases: glycan microarray on Cu2O@Ag slides
Type in all cases: binding
[1] = molecular target: T1, hGal-1 (human galectin-1) (Homo sapiens, UniProt P09382); conditions: immobilised glycan via azide linker; hGal-1 25 μg/mL
T1 construct: gene LGALS1; dimeric lectin; construct details only in supplement

[2] = molecular target: T2, hGal-7 (human galectin-7) (Homo sapiens, UniProt P47929); conditions: immobilised glycan via azide linker; hGal-7 25 μg/mL
T2 construct: gene LGALS7; construct details only in supplement

[3] = molecular target: T3, hGal-3 (human galectin-3) (Homo sapiens, UniProt P17931); conditions: immobilised glycan via azide linker; hGal-3 25 μg/mL
T3 construct: gene LGALS3; chimera-type galectin; construct details only in supplement
T3 sequence (P17931 2-250): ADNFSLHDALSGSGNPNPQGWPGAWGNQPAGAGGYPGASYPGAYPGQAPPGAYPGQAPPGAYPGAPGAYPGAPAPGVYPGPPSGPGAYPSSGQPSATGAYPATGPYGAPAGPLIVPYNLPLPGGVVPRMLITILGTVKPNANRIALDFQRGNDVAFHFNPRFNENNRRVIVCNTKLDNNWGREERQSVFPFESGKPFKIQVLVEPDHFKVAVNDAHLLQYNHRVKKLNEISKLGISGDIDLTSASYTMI

T2 sequence (P47929 whole entry): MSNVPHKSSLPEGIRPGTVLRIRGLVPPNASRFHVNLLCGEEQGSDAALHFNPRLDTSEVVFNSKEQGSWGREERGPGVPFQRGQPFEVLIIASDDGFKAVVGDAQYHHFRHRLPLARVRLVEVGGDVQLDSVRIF
T1 sequence (P09382 2-135): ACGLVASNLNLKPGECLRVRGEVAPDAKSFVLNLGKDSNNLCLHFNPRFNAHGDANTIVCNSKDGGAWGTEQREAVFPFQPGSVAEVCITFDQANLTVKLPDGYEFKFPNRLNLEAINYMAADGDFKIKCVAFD

Row | SMILES | glycan microarray on Cu2O@Ag slides [1] | glycan microarray on Cu2O@Ag slides [2] | glycan microarray on Cu2O@Ag slides [3]
1 | CC(=O)N[C@H]1[C@H](O[C@H]2[C@@H](O)[C@@H](CO)O[C@@H](O[C@H]3[C@H](O)[C@@H](O)C(O)O[C@@H]3CO)[C@@H]2O)O[C@H](CO)[C@@H](O)[C@@H]1O[C@@H]1O[C@H](CO)[C@H](O)[C@H](O)[C@H]1O (stereo partly drawn) [LNT] | LNT and LNnT, respectively) further increased the binding affinity | with LNT showing the strongest binding affinity | –
2 | CC(=O)N[C@H]1[C@H](O[C@H]2[C@@H](O)[C@@H](CO)O[C@@H](O[C@H]3[C@H](O)[C@@H](O)C(O)O[C@@H]3CO)[C@@H]2O)O[C@H](CO)[C@@H](O[C@@H]2O[C@H](CO)[C@H](O)[C@H](O)[C@H]2O)[C@@H]1O (stereo partly drawn) [LNnT] | – | – | The stronger affinity of LNnT compared to LNT
